# From ChEMBL document CHEMBL3885881, “DrugMatrix”
# Species on record: Rattus norvegicus
# Assay: DrugMatrix - Regimen: Daily Repeat
# Assay type: toxicity, organism-based, Sprague-Dawley
# Parameters: regimen Daily Repeat, gender Male, age 6-8 weeks
# Conditions: in vivo, po, 72 h, route oral GAVAGE, time 3 day, vehicle .5 % CMC; for ABSOLUTE BASOPHIL / ABSOLUTE EOSINOPHIL / ABSOLUTE LYMPHOCYTE / ABSOLUTE MONOCYTE / ABSOLUTE SEGMENTED NEUTROPHIL / BASOPHIL / EOSINOPHIL / ERYTHROCYTE COUNT / HEMATOCRIT / HEMOGLOBIN / LEUKOCYTE COUNT / LYMPHOCYTE / MEAN CORPUSCULAR HEMOGLOBIN / MEAN CORPUSCULAR HEMOGLOBIN CONCENTRATION / MONOCYTE / NUCLEATED RED BLOOD CELLS / PLATELET COUNT / NEUTROPHIL: tissue Blood
# [1] = 0 mg/kg, tissue Plasma, dose level Control
# [2] = 33 mg/kg, tissue Plasma, dose level High
# [3] = […], dose 3.3 mg/Kg, dose level Low
# [4] = […], tissue Plasma, dose 3.3 mg/Kg, dose level Low
sequence,measurement,setting,value
AURANOFIN,ABSOLUTE BASOPHIL,"0 mg/kg, dose level Control",0 CELLS/uL
same,ABSOLUTE EOSINOPHIL,"0 mg/kg, dose level Control",8.83 CELLS/uL
same,ABSOLUTE LYMPHOCYTE,"0 mg/kg, dose level Control",7222.33 CELLS/uL
same,ABSOLUTE MONOCYTE,"0 mg/kg, dose level Control",0 CELLS/uL
same,ABSOLUTE SEGMENTED NEUTROPHIL,"0 mg/kg, dose level Control",752.17 CELLS/uL
same,BASOPHIL,"0 mg/kg, dose level Control",0%
same,EOSINOPHIL,"0 mg/kg, dose level Control",0.17%
same,ERYTHROCYTE COUNT,"0 mg/kg, dose level Control",5.22 x10E6/uL
same,HEMATOCRIT,"0 mg/kg, dose level Control",32.6%
same,HEMOGLOBIN,"0 mg/kg, dose level Control",12.43 G/DL
same,LEUKOCYTE COUNT,"0 mg/kg, dose level Control",7.98 x10E3/uL
same,LYMPHOCYTE,"0 mg/kg, dose level Control",91.17%
same,MEAN CORPUSCULAR HEMOGLOBIN,"0 mg/kg, dose level Control",23.87 pg
same,MEAN CORPUSCULAR HEMOGLOBIN CONCENTRATION,"0 mg/kg, dose level Control",38.18 G/DL
same,MONOCYTE,"0 mg/kg, dose level Control",0%
same,NUCLEATED RED BLOOD CELLS,"0 mg/kg, dose level Control",0 /100WBC
same,PLATELET COUNT,"0 mg/kg, dose level Control",1082.33 x10E3/uL
same,ALANINE AMINOTRANSFERASE,[1],42.17 u/L
same,ALKALINE PHOSPHATASE,[1],451.17 u/L
same,ASPARTATE AMINOTRANSFERASE,[1],76.17 u/L
same,BLOOD UREA NITROGEN,[1],13.33 mg/dL
same,CARBON DIOXIDE,[1],31.67 mmol/L
same,CHLORIDE,[1],96.5 MEQ/L
same,CHOLESTEROL,[1],78 mg/dL
same,CREATINE PHOSPHOKINASE,[1],216.5 u/L
same,CREATININE,[1],0.22 mg/dL
same,GLUCOSE,[1],137 mg/dL
same,LACTATE DEHYDROGENASE,[1],138.5 u/L
same,PHOSPHORUS,[1],12.68 mg/dL
same,POTASSIUM,[1],6.23 MEQ/L
same,TOTAL BILIRUBIN,[1],0.15 mg/dL
same,TOTAL PROTEIN,[1],6.33 G/DL
same,URIC ACID,[1],1.1 mg/dL
same,ABSOLUTE BASOPHIL,"33 mg/kg, dose level High",0 CELLS/uL
same,ABSOLUTE EOSINOPHIL,"33 mg/kg, dose level High",19 CELLS/uL
same,ABSOLUTE LYMPHOCYTE,"33 mg/kg, dose level High",6925.33 CELLS/uL
same,ABSOLUTE MONOCYTE,"33 mg/kg, dose level High",0 CELLS/uL
same,ABSOLUTE SEGMENTED NEUTROPHIL,"33 mg/kg, dose level High",722.33 CELLS/uL
same,BASOPHIL,"33 mg/kg, dose level High",0%
same,EOSINOPHIL,"33 mg/kg, dose level High",0.33%
same,ERYTHROCYTE COUNT,"33 mg/kg, dose level High",5.07 x10E6/uL
same,HEMATOCRIT,"33 mg/kg, dose level High",31.53%
same,HEMOGLOBIN,"33 mg/kg, dose level High",12.07 G/DL
same,LEUKOCYTE COUNT,"33 mg/kg, dose level High",7.67 x10E3/uL
same,LYMPHOCYTE,"33 mg/kg, dose level High",90.67%
same,MEAN CORPUSCULAR HEMOGLOBIN,"33 mg/kg, dose level High",23.77 pg
same,MEAN CORPUSCULAR HEMOGLOBIN CONCENTRATION,"33 mg/kg, dose level High",38.27 G/DL
same,MONOCYTE,"33 mg/kg, dose level High",0%
same,NEUTROPHIL,"33 mg/kg, dose level High",9%
same,NUCLEATED RED BLOOD CELLS,"33 mg/kg, dose level High",0 /100WBC
same,PLATELET COUNT,"33 mg/kg, dose level High",1030 x10E3/uL
same,ALANINE AMINOTRANSFERASE,[2],55.67 u/L
same,ALBUMIN,[2],3.8 G/DL
same,ALKALINE PHOSPHATASE,[2],342.67 u/L
same,ASPARTATE AMINOTRANSFERASE,[2],80.33 u/L
same,BLOOD UREA NITROGEN,[2],13.33 mg/dL
same,CARBON DIOXIDE,[2],31.67 mmol/L
same,CHOLESTEROL,[2],93.33 mg/dL
same,CREATINE PHOSPHOKINASE,[2],251.67 u/L
same,CREATININE,[2],0.18 mg/dL
same,GLUCOSE,[2],139 mg/dL
same,LACTATE DEHYDROGENASE,[2],122 u/L
same,SODIUM,[2],153.7 MEQ/L
same,TOTAL BILIRUBIN,[2],0.2 mg/dL
same,TOTAL PROTEIN,[2],5.87 G/DL
same,URIC ACID,[2],1.13 mg/dL
same,ABSOLUTE BASOPHIL,[3],0 CELLS/uL
same,ABSOLUTE EOSINOPHIL,[3],46.33 CELLS/uL
same,ABSOLUTE LYMPHOCYTE,[3],6434 CELLS/uL
same,ABSOLUTE MONOCYTE,[3],30 CELLS/uL
same,ABSOLUTE SEGMENTED NEUTROPHIL,[3],1123 CELLS/uL
same,BASOPHIL,[3],0%
same,EOSINOPHIL,[3],0.67%
same,ERYTHROCYTE COUNT,[3],5.02 x10E6/uL
same,HEMATOCRIT,[3],31.27%
same,HEMOGLOBIN,[3],11.83 G/DL
same,LEUKOCYTE COUNT,[3],7.63 x10E3/uL
same,LYMPHOCYTE,[3],84.33%
same,MEAN CORPUSCULAR HEMOGLOBIN,[3],23.57 pg
same,MEAN CORPUSCULAR HEMOGLOBIN CONCENTRATION,[3],37.83 G/DL
same,MONOCYTE,[3],0.33%
same,NEUTROPHIL,[3],14.67%
same,NUCLEATED RED BLOOD CELLS,[3],0.33 /100WBC
same,PLATELET COUNT,[3],1052.33 x10E3/uL
same,ALANINE AMINOTRANSFERASE,[4],42.33 u/L
same,ALBUMIN,[4],4.1 G/DL
same,ALKALINE PHOSPHATASE,[4],371 u/L
same,ASPARTATE AMINOTRANSFERASE,[4],73 u/L
same,BLOOD UREA NITROGEN,[4],13 mg/dL
same,CARBON DIOXIDE,[4],33 mmol/L
same,CHLORIDE,[4],97 MEQ/L
same,CHOLESTEROL,[4],76.67 mg/dL
same,CREATINE PHOSPHOKINASE,[4],140 u/L
same,CREATININE,[4],0.18 mg/dL
same,GLUCOSE,[4],143 mg/dL
same,LACTATE DEHYDROGENASE,[4],96 u/L
same,LIPASE,[4],8.33 u/L
same,POTASSIUM,[4],6.12 MEQ/L
same,SODIUM,[4],145.6 MEQ/L
same,TOTAL BILIRUBIN,[4],0.17 mg/dL
same,TOTAL PROTEIN,[4],6.17 G/DL
same,URIC ACID,[4],1 mg/dL
